Ends that are not written are not given here.
Assays:
[1] = system: E. coli 0111:B4 (smooth) bacteria; experiment: Radial diffusion bactericidal assay, E. coli 0111:B4; assay type: cell-based; conditions: radial diffusion; PROBIT analysis; E. coli O111:B4 (smooth)
[2] = 3H-heparin binding assay (affinity and capacity); conditions: for Heparin Capacity: heparin bound at saturation; for Kd: read-out: Heparin Affinity; for HEPCAP (x Fold change in activity): heparin binding capacity; for cpm ^3H-Heparin bound: 100 picomoles of each fragment per well, saturating 3H-heparin 20 μg/mL, mean of duplicate wells ± range
Outline: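 Peptide fragments were bound to PVDF-membrane wells and incubated with 3H-heparin in blocking buffer for 1 h at 4 °C. After washing, bound radioactivity was quantified by liquid scintillation counting, with BSA background subtracted; rBPI23 served as positive control.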

[3] = system: rough mutant E. coli J5 bacteria; experiment: Radial diffusion bactericidal assay, E. coli J5; assay type: cell-based; conditions: for pmol added to well to achieve a 30 mm^2 bactericidal zone, E. coli J5: radial diffusion, PROBIT analysis, E. coli J5 (rough)
Outline: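 Log-phase bacteria (3 h at 37 °C in tryptic soy broth), washed in 10 mM sodium phosphate pH 7.4, were embedded at 4×10^6 CFU/mL in underlayer agarose. BPI proteolytic fragments (5 or 10 μL) went into 3 mm wells for 3 h at 37 °C, then agarose overlay and overnight 37 °C growth. Clear zones were measured by micrometer.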

E. coli 0113 LPS = experiment: Limulus Amoebocyte Lysate (LAL) inhibition assay; assay type: biochemical
Experimental: BPI proteolytic fragments produced according to Example 1 were subjected to a Limulus Amoebocyte Lysate (LAL) inhibition assay to determine LPS binding properties of these fragments. Specifically, each of the fragments were mixed in Eppendorf tubes with a fixed concentration of E. coli 0113 LPS (4 ng/mL final concentration) and incubated at 37° C. for 3 hours with occasional shaking. Addition controls comprising rBPI23 at 0.05 μg/mL were also tested. Following incubation, 360 μL of Dulbecco's phosphate buffered saline (D-PBS; Grand Island Biological Co. (GIBCO), Long Island, N.Y.) were added per tube to obtain an LPS concentration of 200 pg/mL for the LAL assay. Each sample was then transferred into Immulon II strips (Dynatech, Chantilly, Va.) in volumes of 50 μl per well.
Limulus amoebocyte Lysate (Quantitative Chromogenic LAL kit, Whitaker Bioproducts, Inc., Walkersville, Md.) was added at 50 μL per well and the wells were incubated at room temperature for 25 minutes. Chromogenic substrate was then added at a volume of 100 μL per well and was well mixed. After incubation for 20 to 30 minutes at room temperature, the reaction was stopped with addition of 100 μL of 25% (v/v) acetic acid. Optical density at 405 nm was then measured in a multiplate reader (Model Vmax, […], Menlo Park, Calif.) with the results shown in FIG. 2 in terms of percent inhibition of LPS. In this Figure, the filled circle represents rBPI23; the open circle represents Asp-N fragment A3; the x represents Asp-N fragment A2, the filled square represents Asp-N fragment A4; the filled triangle represents Asp-N fragment A1A2; the open square represents Asp-N fragment A6a; the small open triangle represents CNBr fragment C3; and the small filled square represents CNBr fragment C1/C5.

RAW 264.7 cells = experiment: LPS neutralization cellular proliferation assay, RAW 264.7 cells; assay type: cell-based, mouse
Outline: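 Mouse RAW 264.7 cells were primed 24 h with 50U/mL mouse γ-interferon, then exposed about 15 h to E. coli O113 LPS in serum-free RPMI with or without BPI peptides at 25 ng/mL–50 μg/mL. Proliferation was quantified by [^3H]-thymidine uptake, 1 μCi/well, added at 5 h.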

Candida albicans = assay type: cell-based
Staphylococcus aureus = experiment: Radial diffusion bactericidal assay, Staphylococcus aureus; assay type: cell-based; conditions: radial diffusion; PROBIT analysis; S. aureus
C. albicans = experiment: Radial diffusion fungicidal assay, Candida albicans; assay type: cell-based; conditions: radial diffusion
[4] = alanine variant relative to BPI.2
[5] = alanine variant relative to BPI.13

| Molecule | pmol added to well to achieve a 30 mm^2 bactericidal zone, E. coli O111:B4 [1] | Heparin Capacity [2] [ng] | Kd [2] [nM] | pmol added to well to achieve a 30 mm^2 bactericidal zone, E. coli J5 [3] | LAL (relative difference) (E. coli 0113 LPS; [4]) | also measured |
| --- | --- | --- | --- | --- | --- | --- |
| IKIAGKWKAQKRFLK [BPI.18] | b (no detectable activity up to 5 μg/well) | 156.6 | 381 | 7,128.50 pmol | = (no difference in the LAL assay) |  |
| IAISGKWKAQKRFLK [BPI.16] | b (no detectable activity up to 5 μg/well) | 127.25 | 231 | 7,550.90 pmol | = (no difference in the LAL assay) |  |
| IKISAKWKAQKRFLK [BPI.19] | b (no detectable activity up to 5 μg/well) | 203.6 | 266 | 2,187.80 pmol | = (no difference in the LAL assay) | HEPCAP (x Fold change in activity) ([2]; relative to BPI.2): =1.0 x Fold |
| IKISGAWKAQKRFLK [BPI.20] | b (no detectable activity up to 5 μg/well) | 203.6 | 485 | 3,451.40 pmol | = (no difference in the LAL assay) | HEPCAP (x Fold change in activity) ([2]; relative to BPI.2): =1.0 x Fold |
| IKISGKWKAQKAFLK [BPI.25] | b (no detectable activity up to 5 μg/well) | 107.2 | 346 | 8,203.50 pmol | = (no difference in the LAL assay) | heparin binding capacity, fold lower than the unsubstituted peptide [2]: ~2 fold; HEPKd (x Fold change in activity) ([2]; heparin binding affinity, relative to BPI.2): =1.0 x Fold |
| IKISGKWKAQKRALK [BPI.26] | b (no detectable activity up to 5 μg/well) | 113.1 | 231 | 8,709.60 pmol | = (no difference in the LAL assay) |  |
| AKISGKWKAQKRFLK [BPI.15] | b (no detectable activity up to 5 μg/well) | 145.4 | 315 | 9,705.10 pmol | = (no difference in the LAL assay) |  |
| KSKVGWLIQLWHKK [BPI.82] | 3,681.30 pmol | 163.1 | 427 | 171.32 pmol |  | EC50 (peptide concentration at which the growth inhibitory effect of LPS was reversed by 50%) (RAW 264.7 cells): 0.8 ± 0.1 µg/mL; IC50 (peptide concentration at which RAW cell growth was inhibited by 50%) (RAW 264.7 cells): 18.8 ± 0.8 µg/mL; MIC C. alb (Candida albicans): 3.13 µg/mL; pmol added to well to achieve a 30 mm^2 bactericidal zone, S. aureus (Staphylococcus aureus): 11,027.00 pmol; C. albicans: pmol required for 30 mm^2 zone (C. albicans): 518.43 pmol |
| A1: Asp-N fragment of rBPI23, region 1-38 as printed in Table II (A1 A2 in Table I) (VNPGVVVRISQKGLDYASQQGTAALQKELKRIKIPDYS; Asp-N fragment; UniProt P17213 32-69, looked up, fragment) |  |  |  |  |  | cpm ^3H-Heparin bound [2]: 17,002 ± 479 cpm; amount required to inhibit the LAL assay, fold higher than 116-193 fragment / rBPI23 (E. coli 0113 LPS): 10 fold |
| KSKVGWLIQLFHKA [BPI.44] |  | 335.6 | 579 | 480.80 pmol |  | MIC C. alb (Candida albicans): 6.25 µg/mL; MIC (x Fold change in fungicidal activity) (Candida albicans; [5]): =; LAL (relative difference) (E. coli 0113 LPS; [5]): = (no difference in the LAL assay); C. albicans: pmol required for 30 mm^2 zone (C. albicans): 577.65 pmol |
| A4: Asp-N fragment of rBPI23, residues 57-104 (DIREFQLPSSQISMVPNVGLKFSISNANIKISGKWKAQKRFLKMSGNF; UniProt P17213 88-135, looked up, fragment) |  |  |  |  |  | cpm ^3H-Heparin bound [2]: 33,159 ± 1.095 cpm; amount required to inhibit the LAL assay, fold higher than 116-193 fragment / rBPI23 (E. coli 0113 LPS): 10 fold |
| IKISGKAKAQKRFLK [BPI.21] | b (no detectable activity up to 5 μg/well) | 50.9 | 231 | 27,647.60 pmol |  | heparin binding capacity, fold lower than the unsubstituted peptide [2]: 4 fold; fold reduction in bactericidal activity in the radial diffusion assay ([3]; alanine variant vs unsubstituted peptide): more than 10 fold; LAL / LPS inhibition activity (in words) (E. coli 0113 LPS): large decrease in activity |
| IKASGKWKAQKRFLK [BPI.17] | b (no detectable activity up to 5 μg/well) | 113.1 | 266 | 15,836.70 pmol | ↓ (moderate) | LAL / LPS inhibition activity (in words) (E. coli 0113 LPS): moderate |
| KSKVGWLIQLFHKF [BPI.96] | 8,691.85 pmol | 203.8 | 469 | 378.33 pmol |  | EC50 (peptide concentration at which the growth inhibitory effect of LPS was reversed by 50%) (RAW 264.7 cells): 1.6 ± 0.2 µg/mL; IC50 (peptide concentration at which RAW cell growth was inhibited by 50%) (RAW 264.7 cells): 18.8 ± 0.8 µg/mL; pmol added to well to achieve a 30 mm^2 bactericidal zone, S. aureus (Staphylococcus aureus): 91,585.37 pmol; C. albicans: pmol required for 30 mm^2 zone (C. albicans): 1856.08 pmol |
| IKISGKWAAQKRFLK [BPI.22] | b (no detectable activity up to 5 μg/well) | 135.7 | 315 | 2,546.80 pmol | = (no difference in the LAL assay) | RDA (x Fold change in activity) [3, 4]: =1.0 x Fold |
| IKISGKWKAQKRFAK [BPI.27] | b (no detectable activity up to 5 μg/well) | 119.8 | 204 | 5,754.40 pmol | = (no difference in the LAL assay) |  |
| IKISGKWKAQARFLK [BPI.24] | 27,330.00 pmol | 427.6 | 165 | 654.60 pmol | = (no difference in the LAL assay) | activity of position 95 substitution variants (in words) ([3]; activity not further specified): unexpected increase |
| IKISGKWKAQKRFLA [BPI.28] | b (no detectable activity up to 5 μg/well) | 156.6 | 266 | 6,194.40 pmol | = (no difference in the LAL assay) |  |
| C1,C5: unresolved mixture of CNBr fragments of rBPI23, residues 1-56 and 112-170 (protein, non-natural residues) chain 1: MRENMARGPCNAPRWVSLMVLVAIGTAVTAAVNPGVVVRISQKGLDYASQQGTAAL chain 2: SNANIKISGKWKAQKRFLKMSGNFDLSIEGMSISADLKLGSNPTSGKPTITCSSCSSHI |  |  |  |  |  | cpm ^3H-Heparin bound [2]: 82,918 ± 4,462 cpm; IC50 relative to intact rBPI23 (fold higher) (E. coli 0113 LPS): approximately 10 fold; IC50 (E. coli 0113 LPS; read-out: IC50 of inhibition of the LPS-induced LAL reaction): ~100 nM |
| A6a: Asp-N fragment of rBPI23, residues 116-193 (protein) IKISGKWKAQKRFLKMSGNFDLSIEGMSISADLKLGSNPTSGKPTITCSSCSSHINSVHVHISKSKVGWLIQLFHKKI |  |  |  |  |  | cpm ^3H-Heparin bound [2]: 13,419 ± 309 cpm; LAL / LPS inhibition activity (in words) (E. coli 0113 LPS): LAL inhibitory activity similar to intact rBPI23; concentration giving complete inhibition of the LPS-induced LAL reaction (E. coli 0113 LPS): 15 nM |
